Measurements published in PubChem BioAssay AID1259407 (Chemical Carcinogenesis Research Information System (CCRIS), 2018).
The source made the active and inactive calls. The rule behind the calls is not given here.

System: CCRIS mutagenicity, Ames/micronucleus/aberration tests
Assay: CCRIS mutagenicity studies
[1] = Test System: AMES SALMONELLA TYPHIMURIUM, Strain/Indicator: TA98, Metabolic Activation: NONE, Method: STANDARD PLATE
[2] = Test System: AMES SALMONELLA TYPHIMURIUM, Strain/Indicator: TA100, Metabolic Activation: NONE, Method: STANDARD PLATE
[3] = Test System: AMES SALMONELLA TYPHIMURIUM, Strain/Indicator: TA1535, Metabolic Activation: NONE, Method: STANDARD PLATE
[4] = Test System: AMES SALMONELLA TYPHIMURIUM, Strain/Indicator: TA1537, Metabolic Activation: NONE, Method: STANDARD PLATE

## CCN(CCCl)CCCNc1c2ccccc2nc2c1ccc1ccccc12
[1]
  mutagenic call: active; positive
[2]
  mutagenic call: active; positive
[3]
  mutagenic call: inactive; negative
Test System: AMES SALMONELLA TYPHIMURIUM, Strain/Indicator: TA1536, Metabolic Activation: NONE, Method: STANDARD PLATE
  mutagenic call: active; positive
[4]
  mutagenic call: active; positive
Test System: AMES SALMONELLA TYPHIMURIUM, Strain/Indicator: TA1538, Metabolic Activation: NONE, Method: STANDARD PLATE
  mutagenic call: active; positive
Test System: CHO/HGPRT, Strain/Indicator: CHO-K1-BH4, Metabolic Activation: NONE, Method: STANDARD PLATE
  mutagenic call: active; positive

## Nc1ccccc1C(=O)OC1CCCCC1
Test System: AMES SALMONELLA TYPHIMURIUM, Strain/Indicator: TA97, Metabolic Activation: HAMSTER, LIVER, S-9, AROCLOR 1254 (10%), Method: PREINCUBATION
  mutagenic call: inactive; negative
Test System: AMES SALMONELLA TYPHIMURIUM, Strain/Indicator: TA97, Metabolic Activation: HAMSTER, LIVER, S-9, AROCLOR 1254 (30%), Method: PREINCUBATION
  mutagenic call: inactive; negative
Test System: AMES SALMONELLA TYPHIMURIUM, Strain/Indicator: TA97, Metabolic Activation: NONE, Method: PREINCUBATION
  mutagenic call: inactive; negative
Test System: AMES SALMONELLA TYPHIMURIUM, Strain/Indicator: TA97, Metabolic Activation: RAT, LIVER, S-9, AROCLOR 1254 (10%), Method: PREINCUBATION
  mutagenic call: inactive; negative
Test System: AMES SALMONELLA TYPHIMURIUM, Strain/Indicator: TA97, Metabolic Activation: RAT, LIVER, S-9, AROCLOR 1254 (30%), Method: PREINCUBATION
  mutagenic call: inactive; negative
Test System: AMES SALMONELLA TYPHIMURIUM, Strain/Indicator: TA98, Metabolic Activation: HAMSTER, LIVER, S-9, AROCLOR 1254 (10%), Method: PREINCUBATION
  mutagenic call: inactive; negative
Test System: AMES SALMONELLA TYPHIMURIUM, Strain/Indicator: TA98, Metabolic Activation: HAMSTER, LIVER, S-9, AROCLOR 1254 (30%), Method: PREINCUBATION
  mutagenic call: inactive; negative
Test System: AMES SALMONELLA TYPHIMURIUM, Strain/Indicator: TA98, Metabolic Activation: NONE, Method: PREINCUBATION
  mutagenic call: inactive; negative
Test System: AMES SALMONELLA TYPHIMURIUM, Strain/Indicator: TA98, Metabolic Activation: RAT, LIVER, S-9, AROCLOR 1254 (10%), Method: PREINCUBATION
  mutagenic call: inactive; negative
Test System: AMES SALMONELLA TYPHIMURIUM, Strain/Indicator: TA98, Metabolic Activation: RAT, LIVER, S-9, AROCLOR 1254 (30%), Method: PREINCUBATION
  mutagenic call: inactive; negative
Test System: AMES SALMONELLA TYPHIMURIUM, Strain/Indicator: TA100, Metabolic Activation: HAMSTER, LIVER, S-9, AROCLOR 1254 (10%), Method: PREINCUBATION
  mutagenic call: inactive; negative
Test System: AMES SALMONELLA TYPHIMURIUM, Strain/Indicator: TA100, Metabolic Activation: HAMSTER, LIVER, S-9, AROCLOR 1254 (30%), Method: PREINCUBATION
  mutagenic call: inactive; negative
Test System: AMES SALMONELLA TYPHIMURIUM, Strain/Indicator: TA100, Metabolic Activation: NONE, Method: PREINCUBATION
  mutagenic call: inactive; negative
Test System: AMES SALMONELLA TYPHIMURIUM, Strain/Indicator: TA100, Metabolic Activation: RAT, LIVER, S-9, AROCLOR 1254 (10%), Method: PREINCUBATION
  mutagenic call: inactive; negative
Test System: AMES SALMONELLA TYPHIMURIUM, Strain/Indicator: TA100, Metabolic Activation: RAT, LIVER, S-9, AROCLOR 1254 (30%), Method: PREINCUBATION
  mutagenic call: inactive; negative
Test System: AMES SALMONELLA TYPHIMURIUM, Strain/Indicator: TA1535, Metabolic Activation: HAMSTER, LIVER, S-9, AROCLOR 1254 (10%), Method: PREINCUBATION
  mutagenic call: inactive; negative
Test System: AMES SALMONELLA TYPHIMURIUM, Strain/Indicator: TA1535, Metabolic Activation: HAMSTER, LIVER, S-9, AROCLOR 1254 (30%), Method: PREINCUBATION
  mutagenic call: inactive; negative
Test System: AMES SALMONELLA TYPHIMURIUM, Strain/Indicator: TA1535, Metabolic Activation: NONE, Method: PREINCUBATION
  mutagenic call: inactive; negative
Test System: AMES SALMONELLA TYPHIMURIUM, Strain/Indicator: TA1535, Metabolic Activation: RAT, LIVER, S-9, AROCLOR 1254 (10%), Method: PREINCUBATION
  mutagenic call: inactive; negative
Test System: AMES SALMONELLA TYPHIMURIUM, Strain/Indicator: TA1535, Metabolic Activation: RAT, LIVER, S-9, AROCLOR 1254 (30%), Method: PREINCUBATION
  mutagenic call: inactive; negative

## CCCCCON=O
Test System: AMES SALMONELLA TYPHIMURIUM, Strain/Indicator: TA98, Metabolic Activation: HAMSTER, LIVER, S-9, AROCLOR 1254, Method: STANDARD PLATE
  mutagenic call: inactive; negative
[1]
  mutagenic call: inactive; negative
Test System: AMES SALMONELLA TYPHIMURIUM, Strain/Indicator: TA98, Metabolic Activation: RAT, LIVER, S-9, AROCLOR 1254, Method: STANDARD PLATE
  mutagenic call: inactive; negative
Test System: AMES SALMONELLA TYPHIMURIUM, Strain/Indicator: TA100, Metabolic Activation: HAMSTER, LIVER, S-9, AROCLOR 1254, Method: STANDARD PLATE
  mutagenic call: active; positive
[2]
  mutagenic call: active; positive
Test System: AMES SALMONELLA TYPHIMURIUM, Strain/Indicator: TA100, Metabolic Activation: RAT, LIVER, S-9, AROCLOR 1254, Method: STANDARD PLATE
  mutagenic call: inactive; negative
Test System: AMES SALMONELLA TYPHIMURIUM, Strain/Indicator: TA1535, Metabolic Activation: HAMSTER, LIVER, S-9, AROCLOR 1254, Method: STANDARD PLATE
  mutagenic call: active; positive
[3]
  mutagenic call: active; positive
Test System: AMES SALMONELLA TYPHIMURIUM, Strain/Indicator: TA1535, Metabolic Activation: RAT, LIVER, S-9, AROCLOR 1254, Method: STANDARD PLATE
  mutagenic call: active; positive
Test System: AMES SALMONELLA TYPHIMURIUM, Strain/Indicator: TA1537, Metabolic Activation: HAMSTER, LIVER, S-9, AROCLOR 1254, Method: STANDARD PLATE
  mutagenic call: inactive; negative
[4]
  mutagenic call: inactive; negative
Test System: AMES SALMONELLA TYPHIMURIUM, Strain/Indicator: TA1537, Metabolic Activation: RAT, LIVER, S-9, AROCLOR 1254, Method: STANDARD PLATE
  mutagenic call: inactive; negative
Test System: MOUSE LYMPHOMA, Strain/Indicator: L5178Y (TK+/TK-), Metabolic Activation: NONE, Method: SUSPENSION/PLATE
  mutagenic call: inactive; negative. reevaluation of results: inconclusive/negative
Test System: MOUSE LYMPHOMA, Strain/Indicator: L5178Y (TK+/TK-), Metabolic Activation: RAT, LIVER, S-9, AROCLOR 1254, Method: SUSPENSION/PLATE
  mutagenic call: inactive; negative. reevaluation of results: negative
